For this assay, the target named is T1, APOL1 (Homo sapiens, UniProt O14791).
T1 sequence (O14791 1-398): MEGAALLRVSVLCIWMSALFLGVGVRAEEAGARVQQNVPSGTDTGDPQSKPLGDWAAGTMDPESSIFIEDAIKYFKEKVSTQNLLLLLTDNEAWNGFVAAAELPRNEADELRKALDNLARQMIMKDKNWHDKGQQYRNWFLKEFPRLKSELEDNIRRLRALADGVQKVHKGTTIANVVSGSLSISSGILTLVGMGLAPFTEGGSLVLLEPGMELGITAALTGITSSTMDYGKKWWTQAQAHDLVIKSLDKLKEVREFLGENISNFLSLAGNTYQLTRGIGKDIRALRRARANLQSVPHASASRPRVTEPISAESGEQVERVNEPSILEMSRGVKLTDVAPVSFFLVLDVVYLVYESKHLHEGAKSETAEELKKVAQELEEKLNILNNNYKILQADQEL
The assay is described as follows: MultiTox-Fluor Multiplex Cytotoxicity Assay, tet-inducible APOL1 T-REx-HEK293 cells (G0, G1 or G2 clone not specified for Table 20). The assay is classed as cell-based. Particulars: tet-induced, 24 hours with compound, ratio of dead to live cells, read-out: IP50 (i.e., IC50 for cell proliferation). The gist of the method: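 HEK293 T-REx cells with tet-inducible APOL1 G0, G1 or G2 clone, 23,400/well, treated with tetracycline plus compound (top 10 μM, 10-point 3-fold, duplicate) for 24 h at 37° C. MultiTox-Fluor dead/live fluorescence ratio, normalized to no-tet (100% viability) and 50 ng/mL tet (0% viability) controls, then curve-fitted.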
On to `COC(=O)c1ccc(CN2CCC3(CC2)OC(C(N)=O)c2ccc(Cl)cc23)nc1` (centres unmarked) [Compound 250], for which the IC50 was 50 to 500 nM.
As for `NC(=O)C1OC2(CCN(Cc3cnc(C4CC4)o3)CC2)c2cc(Cl)ccc21` (centres unmarked) [Compound 251], the IC50 was in the range of 50 to 500 nM.
`NC(=O)C1OC2(CCN(Cc3cncnc3)CC2)c2cc(Cl)ccc21` (centres unmarked) [Compound 252]: the IC50 is no less than 500 nM.
Consider `Cn1cc(CN2CCC3(CC2)OC(C(N)=O)c2ccc(Cl)cc23)ccc1=O` (centres unmarked) [Compound 253], for which the IC50 was in the range of 50 to 500 nM.
Under `NC(=O)C1OC2(CCN(Cc3cnn4c3NCCC4)CC2)c2cc(Cl)ccc21` (centres unmarked) [Compound 254] stands no less than 500 nM.
Next, `NC(=O)C1OC2(CCN(Cc3cocn3)CC2)c2cc(Cl)ccc21` (centres unmarked) [Compound 255]: no less than 500 nM; `NC(=O)C1OC2(CCN(Cc3cnc(N)nc3)CC2)c2cc(Cl)ccc21` (centres unmarked) [Compound 256]: 50 to 500 nM; `NC(=O)C1OC2(CCN(Cc3cnn(C4CC4)c3N)CC2)c2cc(Cl)ccc21` (centres unmarked) [Compound 257]: 50 to 500 nM.
Regarding `Cc1cc(CN2CCC3(CC2)OC(C(N)=O)c2ccc(Cl)cc23)on1` (centres unmarked) [Compound 258], the IC50 was no less than 500 nM.
As for `NC(=O)C1OC2(CCN(Cc3ccno3)CC2)c2cc(Cl)ccc21` (centres unmarked) [Compound 259], the IC50 was no less than 500 nM.
Consider `Cc1ncc(CN2CCC3(CC2)OC(C(N)=O)c2ccc(Cl)cc23)o1` (centres unmarked) [Compound 260], for which the IC50 was in the range of 50 to 500 nM.
Consider `Cc1cc(CN2CCC3(CC2)OC(C(N)=O)c2ccc(Cl)cc23)ccn1` (centres unmarked) [Compound 261], for which the IC50 was 50 to 500 nM.
On to `NC(=O)C1OC2(CCN(Cc3c[nH]c4ccncc34)CC2)c2cc(Cl)ccc21` (centres unmarked) [Compound 264], for which the IC50 was no less than 500 nM.
For `Cc1cc(CN2CCC3(CC2)OC(C(N)=O)c2ccc(Cl)cc23)no1` (centres unmarked) [Compound 265], the IC50 was no less than 500 nM.
As for `NC(=O)c1cccc(CN2CCC3(CC2)OC(C(N)=O)c2ccc(Cl)cc23)c1` (centres unmarked) [Compound 266], the IC50 is no less than 500 nM.
As to `CC(C)(C)c1ncc(CN2CCC3(CC2)OC(C(N)=O)c2ccc(Cl)cc23)cn1` (centres unmarked) [Compound 267], the IC50 was no less than 500 nM.
Turning to `Cc1cccc(CN2CCC3(CC2)OC(C(N)=O)c2ccc(Cl)cc23)n1` (centres unmarked) [Compound 268], the IC50 is no less than 500 nM.
In the case of `Cn1ccc(CN2CCC3(CC2)OC(C(N)=O)c2ccc(Cl)cc23)cc1=O` (centres unmarked) [Compound 269], the IC50 was no less than 500 nM.
Next, `NC(=O)C1OC2(CCN(Cc3ccc[nH]c3=O)CC2)c2cc(Cl)ccc21` (centres unmarked) [Compound 270]: no less than 500 nM; `Cn1cc(CN2CCC3(CC2)OC(C(N)=O)c2ccc(Cl)cc23)c(=O)n(C)c1=O` (centres unmarked) [Compound 271]: no less than 500 nM; `NC(=O)C1OC2(CCN(Cc3cnccn3)CC2)c2cc(Cl)ccc21` (centres unmarked) [Compound 272]: no less than 500 nM.
Under `Cn1cnc(CN2CCC3(CC2)OC(C(N)=O)c2ccc(Cl)cc23)c1` (centres unmarked) [Compound 273] stands no less than 500 nM.
As for `NC(=O)C1OC2(CCN(Cc3ccc(F)c(S(N)(=O)=O)c3)CC2)c2cc(Cl)ccc21` (centres unmarked) [Compound 274], the IC50 is no less than 500 nM.
With `Cc1c(CN2CCC3(CC2)OC(C(N)=O)c2ccc(Cl)cc23)cnn1C` (centres unmarked) [Compound 275], the IC50 was no less than 500 nM.
In the case of `Cc1nc(C)c(CN2CCC3(CC2)OC(C(N)=O)c2ccc(Cl)cc23)o1` (centres unmarked) [Compound 276], the IC50 was no less than 500 nM.
As to `CC(C)(O)[C@@H](O)Cn1cc(CN2CCC3(CC2)OC(C(N)=O)c2ccc(Cl)cc23)cn1` (stereo partly drawn) [Compound 277, 5-chloro-1′-[[1-[(2S)-2,3-dihydroxy-3-methyl-butyl]pyrazol-4-yl]methyl]spiro[1H-isobenzofuran-3,4′-piperidine]-1-carboxamide], the IC50 was no more than 50 nM.
Under `CC(C)(O)[C@H](O)Cn1cc(CN2CCC3(CC2)OC(C(N)=O)c2ccc(Cl)cc23)cn1` (stereo partly drawn) [Compound 278, 5-chloro-1′-[[1-[(2R)-2,3-dihydroxy-3-methyl-butyl]pyrazol-4-yl]methyl]spiro[1H-isobenzofuran-3,4′-piperidine]-1-carboxamide] stands no more than 50 nM; under `CC(CO)(CO)Cn1cc(CN2CCC3(CC2)OC(C(N)=O)c2ccc(Cl)cc23)cn1` (centres unmarked) [Compound 279, 5-chloro-1′-[[1-[3-hydroxy-2-(hydroxymethyl)-2-methyl-propyl]pyrazol-4-yl]methyl]spiro[1H-isobenzofuran-3,4′-piperidine]-1-carboxamide], no more than 50 nM.
`NC(=O)C1OC2(CCN(Cc3cnn(CC(O)C4(O)CCC4)c3)CC2)c2cc(Cl)ccc21` (centres unmarked) [Compound 280, 5-chloro-1′-[[1-[2-hydroxy-2-(1-hydroxycyclobutyl)ethyl]pyrazol-4-yl]methyl]spiro[1H-isobenzofuran-3,4′-piperidine]-1-carboxamide]: the IC50 is no more than 50 nM.
`NC(=O)C1OC2(CCN(Cc3cnn(CC(O)C4(O)CCOCC4)c3)CC2)c2cc(Cl)ccc21` (centres unmarked) [Compound 281]: the IC50 was no more than 50 nM.
`NC(=O)C1OC2(CCN(Cc3cnn(CC4(O)CCS(=O)(=O)CC4)c3)CC2)c2cc(Cl)ccc21` (centres unmarked) [Compound 282]: the IC50 was no more than 50 nM.
In the case of `NC(=O)C1OC2(CCN(Cc3cnn(C[C@@H](O)CO)c3)CC2)c2cc(Cl)ccc21` (some centres unmarked) [Compound 283], the IC50 was in the range of 50 to 500 nM.
Regarding `CN(C)C(=O)Cn1cc(CN2CCC3(CC2)OC(C(N)=O)c2ccc(Cl)cc23)cn1` (centres unmarked) [Compound 284], the IC50 is 50 to 500 nM.
With `NC(=O)Cn1cc(CN2CCC3(CC2)OC(C(N)=O)c2ccc(Cl)cc23)cn1` (centres unmarked) [Compound 285], the IC50 was in the range of 50 to 500 nM.
Under `Cc1ccc2c(c1)C1(CCN(Cc3cnn(C)c3)CC1)OC2` [Compound 286, 5-methyl-1′-[(1-methylpyrazol-4-yl)methyl]spiro[1H-isobenzofuran-3,4′-piperidine]] stands no less than 500 nM; under `Cc1ccc2c(c1)C1(CCN(Cc3ccc(OCC(C)(C)N)nc3)CC1)OC2(C)C` [Compound 288, 2-methyl-1-[[5-[(1,1,5-trimethylspiro[isobenzofuran-3,4′-piperidine]-1′-yl)methyl]-2-pyridyl]oxy]propan-2-amine], 50 to 500 nM.
Under `Cc1ccc2c(c1)C1(CCN(Cc3cnn(CCS(C)(=O)=O)c3)CC1)OC2(C)C` [Compound 289, 1,1,5-trimethyl-1′-[[1-(2-methylsulfonylethyl)pyrazol-4-yl]methyl]spiro[isobenzofuran-3,4′-piperidine]] stands no less than 500 nM.
As for `C[C@H]1CC2(CCN1Cc1cnn(-c3ccccc3)c1)OC(C(N)=O)c1ccc(Cl)cc12` (stereo partly drawn) [Compound 292, (2′S)-5-chloro-2′-methyl-1′-[(1-phenylpyrazol-4-yl)methyl]spiro[1H-isobenzofuran-3,4′-piperidine]-1-carboxamide], the IC50 is no more than 50 nM.
With `CNC(=O)C1OC2(CCN(Cc3cnn(-c4cccc(C(F)(F)F)c4)c3)CC2)c2cc(Cl)ccc21` (centres unmarked) [Compound 295, 5-chloro-N-methyl-1′-[[1-[3-(trifluoromethyl)phenyl]pyrazol-4-yl]methyl]spiro[1H-isobenzofuran-3,4′-piperidine]-1-carboxamide], the IC50 was no more than 50 nM.
With `COc1ccc2c(c1)C1(CCN(Cc3cnn(-c4ccccc4)c3)CC1)OC2C(N)=O` (centres unmarked) [Compound 296, 6-methoxy-1′-((1-phenyl-1H-pyrazol-4-yl)methyl)-3H-spiro[isobenzofuran-1,4′-piperidine]-3-carboxamide], the IC50 was no less than 500 nM.
On to `CNC(=O)C1OC2(CCN(Cc3cnn(-c4ccccc4)c3)CC2)c2cc(OC)ccc21` (centres unmarked) [Compound 297, 6-methoxy-N-methyl-1′-((1-phenyl-1H-pyrazol-4-yl)methyl)-3H-spiro[isobenzofuran-1,4′-piperidine]-3-carboxamide], for which the IC50 was no less than 500 nM.
Take `CNC(=O)C1OC2(CCN(Cc3cnn(C(C)C)c3)CC2)c2cc(Cl)ccc21` (centres unmarked) [Compound 298, 6-chloro-1′-((1-isopropyl-1H-pyrazol-4-yl)methyl)-N-methyl-3H-spiro[isobenzofuran-1,4′-piperidine]-3-carboxamide]: the IC50 is no less than 500 nM.
For the compound `CNC(=O)C1OC2(CCN(Cc3cnn(-c4ccccc4)c3C)CC2)c2cc(Cl)ccc21` (centres unmarked) [Compound 299, 6-chloro-N-methyl-1′-((5-methyl-1-phenyl-1H-pyrazol-4-yl)methyl)-3H-spiro[isobenzofuran-1,4′-piperidine]-3-carboxamide], the IC50 was no less than 500 nM.
Under `CS(=O)(=O)CCn1cc(CN2CCC3(CC2)CC(O)c2ccc(Cl)cc23)cn1` (centres unmarked) [Compound 302, 5-chloro-1′-[[1-(2-methylsulfonylethyl)pyrazol-4-yl]methyl]spiro[indane-3,4′-piperidine]-1-ol] stands 50 to 500 nM; under `CC1(O)CC2(CCN(Cc3cnn(CCS(C)(=O)=O)c3)CC2)c2cc(Cl)ccc21` (centres unmarked) [Compound 303, 5-chloro-1-methyl-1′-[[1-(2-methylsulfonylethyl)pyrazol-4-yl]methyl]spiro[indane-3,4′-piperidine]-1-ol], no less than 500 nM.
As to `Cc1ccc2c(c1)C1(CCN(Cc3cnn(C)c3)CC1)SC2` [Compound 304, 5-methyl-1′-[(1-methylpyrazol-4-yl)methyl]spiro[1H-2-benzothiophene-3,4′-piperidine]], the IC50 is no less than 500 nM.
For `CS(=O)(=O)CCn1cc(CN2CCC3(CC2)CNc2ccc(Cl)cc23)cn1` [Compound 305, 5-chloro-1′-[[1-(2-methylsulfonylethyl)pyrazol-4-yl]methyl]spiro[indoline-3,4′-piperidine]], the IC50 was no less than 500 nM.
